Experimental data as given in patent US20250340569A1, “INHIBITORS OF KIF18A AND USES THEREOF” (Insilico Medicine IP Limited, priority 2023, published 2025).
pIC50: −log10 of the molar value.

Tests used:
Kif18A = biological target: T1, Kif18A (Homo sapiens, UniProt Q8NI77); test: KIF18A assay (ADP Glo); conditions: biochemical assay, ADP Glo luminescence
T1 sequence (Q8NI77 1-898): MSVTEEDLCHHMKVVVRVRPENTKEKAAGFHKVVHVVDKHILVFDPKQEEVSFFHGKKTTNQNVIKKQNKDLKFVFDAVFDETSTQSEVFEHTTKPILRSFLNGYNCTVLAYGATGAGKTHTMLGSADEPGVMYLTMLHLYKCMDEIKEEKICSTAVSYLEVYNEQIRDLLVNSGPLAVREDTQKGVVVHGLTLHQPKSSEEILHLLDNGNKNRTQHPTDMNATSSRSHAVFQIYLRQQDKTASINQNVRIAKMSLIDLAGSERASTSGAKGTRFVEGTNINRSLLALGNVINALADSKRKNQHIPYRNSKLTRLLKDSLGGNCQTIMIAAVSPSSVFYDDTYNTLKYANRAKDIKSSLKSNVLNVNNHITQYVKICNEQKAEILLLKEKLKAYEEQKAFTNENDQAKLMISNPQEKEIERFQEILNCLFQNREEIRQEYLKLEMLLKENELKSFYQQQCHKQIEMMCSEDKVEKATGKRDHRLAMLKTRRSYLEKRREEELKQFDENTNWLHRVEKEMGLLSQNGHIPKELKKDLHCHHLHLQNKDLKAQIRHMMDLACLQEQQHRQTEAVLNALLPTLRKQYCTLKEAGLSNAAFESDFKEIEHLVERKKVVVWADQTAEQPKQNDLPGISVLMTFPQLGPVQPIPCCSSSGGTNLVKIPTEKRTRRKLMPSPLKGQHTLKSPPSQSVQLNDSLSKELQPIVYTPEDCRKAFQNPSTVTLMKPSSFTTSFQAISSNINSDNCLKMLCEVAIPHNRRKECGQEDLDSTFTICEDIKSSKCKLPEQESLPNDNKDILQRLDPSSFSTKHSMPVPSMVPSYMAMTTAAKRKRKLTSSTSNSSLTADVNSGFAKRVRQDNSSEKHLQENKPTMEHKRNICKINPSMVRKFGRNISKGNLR
Protocol: The KIF18A assay was performed as follows:
1.1. Prepared 1× Kinase Buffer
• a) Added 40 μL test compound to 384-well dilution plate • b) Diluted compound 1:3 in succession in DMSO for each column for 10 pts • c) Transferred 0.1 μL diluted compound solution to 384 assay plate using Echo, each column containing 2 replicates • d) Added 5 μL enzyme working solution to 384-well assay plate, centrifuge 1000 RPM for 1 min e) Incubated at 25° C. for 15 min • f) Added 5 μL ATP working solution to initiate reaction • g) Incubated at 25° C. for 60 min • h) Added 10 μL ADP Glo reagent, centrifuge 1000 RPM for 1 min • i) Incubated at 25° C. for 60 min • j) Added 20 μL kinase detection reagent, centrifuge 1000 RPM for 1 min • k) Incubated at 25° C. for 60 min • l) Read Luminescence Signal on Envision 2104 plate reader.
1.3. Data Analysis—Calculated IC50 and Plot Dose-Response Curve of Compounds:
Calculated IC50 by fitting % Inhibition values and log of compound concentrations to nonlinear regression (dose response−variable slope) with GraphPad 6.0.
[formula] • X: log of inhibitor concentration; Y: % Inhibition

OVCAR-3 = test: OVCAR3 CTG assay; type: cell-based; conditions: Homo sapiens, OVCAR-3, 144 h; CellTiter-Glo, 6 days incubation
From the text: Example B2: OVCAR3 CTG Assay
• a) Preparation of complete medium: Added FBS and appropriate additives according to the information sheet provided by the vendor. Mix gently. • b) Checked the cell name and complete medium and passage number marked on the flask. For adherent cell lines, refer to c to k. For suspension cell lines, refer to g to k. • c) Removed and discarded culture medium using a vacuum pump. • d) Briefly rinsed the cell layer with 0.25% (w/v) Trypsin-0.038% (w/v) EDTA solution to remove all traces of serum that contains trypsin inhibitor. • e) Added 3.0 ml of Trypsin-EDTA solution to flask and observed cells under an inverted microscope until cell layer is dispersed. • f) Added 9.0 ml of complete growth medium and aspirated cells by gently pipetting. • g) Transfered the cell suspension to a centrifuge tube and centrifuged at 1000 rpm for 4 minutes. • h) Discarded the supernatant using a vacuum pump. • i) Added appropriate volume of complete medium. Suspended the cell pellet by gently pipetting. • j) Counted the cell numbers with Vi-cell XR and adjusted cells to appropriate density. • k) Added 190 μL of cell suspension to 96-well opaque-walled clear bottom plates according to the planned plate layout and placed the plates in the CO2 incubator overnight.
2) Compound Stock Preparation:
• a) Plate preparation of testing articles:
The compounds were dissolved in DMSO to prepare 10 mM stock solution. The start working concentration (2 mM) was prepared with DMSO.
b) Staurosporine Plate Preparation:
0.4 mM Staurosporine was prepared in DMSO at working concentration.
The 20× compound containing medium was prepared according to the plate map. 10 μL of 20× compound containing medium was added into each well of the assay plates. Centrifuged at 1000 rpm for 1 minute. The total dilution was 200-fold.
3) Cells were Incubated with the Compounds for 6 Days at 5% CO2, 37° C.
Assay Measurement for CTG Assay
1) Preparation of Reagents
• a) Thawed the CellTiter-Glo buffer and equilibrated to room temperature prior to use. • b) Equilibrated the lyophilized CellTiter-Glo substrate to room temperature prior to use. • c) Transfered the appropriate volume of CellTiter-Glo buffer into the amber bottle containing CellTiter-Glo substrate to reconstitute the lyophilized enzyme/substrate mixture. This formed the CellTiter-Glo reagent. • d) Mixed by gently vortexing, swirling or by inverting the contents to obtain a homogeneous solution. The CellTiter-Glo substrate went into solution easily in less than one minute.
• a) Observed the cell morphology under an inverted microscope after corresponding treatment. • b) Equilibrated the plate and its contents to room temperature for approximately 30 minutes. • c) Added 100 μL of CellTiter-Glo reagent to the assay plate by Multidrop Combi instrument. • d) Mixed contents for 10 minutes on an orbital shaker to induce cell lysis. • e) Allowed the plate to incubate at room temperature for 10 minutes to stabilize luminescent signal. • f) Pasted the clear bottom with white back seal and record luminescence with Envision. The settings should be: Luminescence, measurement time 0.1 s.

Cc1cc2nc(n1)N(C)CCOCC1(C)CCN(CC1)c1cc(NS(=O)(=O)CCO)ccc1C(=O)N2 [EX04]
pIC50 (Kif18A): 7.00 to 8.00 | pIC50 (OVCAR-3): 7.00 to 8.00

Cc1cc2nc(n1)OCCCOCC1(C)CCN(CC1)c1cc(NS(=O)(=O)CCO)ccc1C(=O)N2 [EX05]
pIC50 (Kif18A): > 8.00 | pIC50 (OVCAR-3): 7.00 to 8.00

Cc1cc2nc(n1)N(C)CCCOCC1(C)CCN(CC1)c1cc(NS(=O)(=O)CCO)ccc1C(=O)N2 [EX06]
pIC50 (Kif18A): > 8.00 | pIC50 (OVCAR-3): 6.00 to 7.00

CC12CCN(CC1)c1cc(NS(C)(=O)=O)ccc1C(=O)Nc1cccc(n1)OCCCOC2 [EX08]
pIC50 (Kif18A): > 8.00 | pIC50 (OVCAR-3): 6.00 to 7.00

Cc1cc2nc(n1)N(C)CCOCCC1(C)CCN(CC1)c1cc(NS(=O)(=O)CCO)ccc1C(=O)N2 [EX09]
pIC50 (Kif18A): 7.00 to 8.00 | pIC50 (OVCAR-3): 6.00 to 7.00

CN1CCOCC2(C)CCN(CC2)c2cc(NS(=O)(=O)CCO)ccc2C(=O)Nc2cccc(c2)C1=O [EX10]
pIC50 (Kif18A): 7.00 to 8.00 | pIC50 (OVCAR-3): 6.00 to 7.00

O=C1Nc2cccc(n2)OCCCOCC2CCN(CC2)c2cc(NS(=O)(=O)CCO)ccc21 [EX11]
pIC50 (Kif18A): 7.00 to 8.00 | pIC50 (OVCAR-3): 6.00 to 7.00

Cc1cc2nc(n1)NCCCOCC1(C)CCN(CC1)c1cc(NS(=O)(=O)CCO)ccc1C(=O)N2 [EX12]
pIC50 (Kif18A): 7.00 to 8.00 | pIC50 (OVCAR-3): 7.00 to 8.00

CC12CCN(CC1)c1cc(NS(=O)(=O)CCO)ccc1C(=O)Nc1ccc(=O)n(n1)CCCCOC2 [EX13]
pIC50 (Kif18A): 7.00 to 8.00 | pIC50 (OVCAR-3): 6.00 to 7.00

Cc1cc2nc(n1)N(C)CCCOCC1(C)CCN(CC1)c1cc(S(=O)(=O)NC(C)(C)C)ccc1C(=O)N2 [EX15]
pIC50 (Kif18A): 7.00 to 8.00 | pIC50 (OVCAR-3): 6.00 to 7.00

CNS(=O)(=O)c1ccc2c(c1)N1CCC(C)(CC1)COCCCN(C)c1nc(C)cc(n1)NC2=O [EX16]
pIC50 (Kif18A): 7.00 to 8.00 | pIC50 (OVCAR-3): 6.00 to 7.00

Cc1cc2nc(n1)NCCCOCC1(C(F)(F)F)CCN(CC1)c1cc(NS(=O)(=O)CCO)ccc1C(=O)N2 [EX17]
pIC50 (Kif18A): > 8.00 | pIC50 (OVCAR-3): > 8.00

Cc1cc2nc(n1)NCCCCOC1(C)CCN(CC1)c1cc(NS(=O)(=O)CCO)ccc1C(=O)N2 [EX18]
pIC50 (Kif18A): 7.00 to 8.00 | pIC50 (OVCAR-3): 6.00 to 7.00

Cc1cc2nc(n1)NCC(C)COCC1(C)CCN(CC1)c1cc(NS(=O)(=O)CCO)ccc1C(=O)N2 (stereo not shown) [EX19]
pIC50 (Kif18A): > 8.00 | pIC50 (OVCAR-3): > 8.00

Cc1cc2nc(n1)NC(C)CCOCC1(C)CCN(CC1)c1cc(NS(=O)(=O)CCO)ccc1C(=O)N2 (stereo not shown) [EX20]
pIC50 (Kif18A): 7.00 to 8.00 | pIC50 (OVCAR-3): 7.00 to 8.00

CN1CCOCC2(C)CCN(CC2)c2cc(NS(=O)(=O)CCO)ccc2C(=O)Nc2cccc(n2)C1=O [EX21]
pIC50 (Kif18A): 6.00 to 7.00 | pIC50 (OVCAR-3): 6.00 to 7.00

CN1CCCOCC2(C)CCN(CC2)c2cc(NS(=O)(=O)CCO)ccc2C(=O)Nc2cccc(n2)C1=O [EX22]
pIC50 (Kif18A): 6.00 to 7.00 | pIC50 (OVCAR-3): 6.00 to 7.00

Cc1cc2nc(n1)NCCOCCC1(C)CCN(CC1)c1cc(NS(=O)(=O)CCO)ccc1C(=O)N2 [EX23]
pIC50 (Kif18A): 7.00 to 8.00 | pIC50 (OVCAR-3): 7.00 to 8.00

Cc1cc2nc(n1)NCC(F)COCC1(C)CCN(CC1)c1cc(NS(=O)(=O)CCO)ccc1C(=O)N2 (stereo not shown) [EX24]
pIC50 (Kif18A): > 8.00 | pIC50 (OVCAR-3): 7.00 to 8.00

Cc1cc2nc(n1)NCCCOCC1(C)CCN(CC1)c1cc(S(N)(=O)=O)ccc1C(=O)N2 [EX25-A]
pIC50 (Kif18A): 7.00 to 8.00 | pIC50 (OVCAR-3): 7.00 to 8.00

Cc1cc2nc(n1)NCCCOCC1(C)CCN(CC1)c1cc(S(=O)(=O)NC(C)(C)C)ccc1C(=O)N2 [EX25]
pIC50 (Kif18A): 7.00 to 8.00 | pIC50 (OVCAR-3): > 8.00

Cc1cc2nc(n1)N(CC(F)(F)F)CCCOCC1(C)CCN(CC1)c1cc(NS(=O)(=O)CCO)ccc1C(=O)N2 [EX26]
pIC50 (Kif18A): 7.00 to 8.00 | pIC50 (OVCAR-3): 5.00 to 6.00

Cc1cc2nc(n1)N(C)CCCOCC1(C(F)(F)F)CCN(CC1)c1cc(NS(=O)(=O)CCO)ccc1C(=O)N2 [EX27]
pIC50 (Kif18A): 7.00 to 8.00 | pIC50 (OVCAR-3): 6.00 to 7.00

COC1CNc2nc(C)cc(n2)NC(=O)c2ccc(NS(=O)(=O)CCO)cc2N2CCC(C)(CC2)COC1 (stereo not shown) [EX31]
pIC50 (Kif18A): 7.00 to 8.00 | pIC50 (OVCAR-3): 7.00 to 8.00

Cc1cc2nc(n1)N(C)C[C@H](C)COCC1(C)CCN(CC1)c1cc(NS(=O)(=O)CCO)ccc1C(=O)N2 [EX33-A]
pIC50 (Kif18A): 7.00 to 8.00 | pIC50 (OVCAR-3): 6.00 to 7.00

Cc1cc2nc(n1)N(C)C[C@@H](C)COCC1(C)CCN(CC1)c1cc(NS(=O)(=O)CCO)ccc1C(=O)N2 [EX33-B]
pIC50 (Kif18A): 7.00 to 8.00 | pIC50 (OVCAR-3): 5.00 to 6.00

Cc1cc2nc(n1)NCCCCCC1(C)CCN(CC1)c1cc(NS(=O)(=O)CCO)ccc1C(=O)N2 [EX34]
pIC50 (Kif18A): > 8.00 | pIC50 (OVCAR-3): > 8.00

Cc1cc2nc(n1)N(C)CC(C)COCC1(C(F)(F)F)CCN(CC1)c1cc(NS(=O)(=O)CCO)ccc1C(=O)N2 (stereo not shown) [EX35]
pIC50 (Kif18A): 7.00 to 8.00 | pIC50 (OVCAR-3): 6.00 to 7.00

Cc1cc2nc(n1)NC[C@H](C)COCC1(C(F)(F)F)CCN(CC1)c1cc(NS(=O)(=O)CCO)ccc1C(=O)N2 [EX36-A]
pIC50 (Kif18A): 7.00 to 8.00 | pIC50 (OVCAR-3): 7.00 to 8.00

Cc1cc2nc(n1)NC[C@@H](C)COCC1(C(F)(F)F)CCN(CC1)c1cc(NS(=O)(=O)CCO)ccc1C(=O)N2 [EX36-B]
pIC50 (Kif18A): 7.00 to 8.00 | pIC50 (OVCAR-3): > 8.00

Cc1cc2nc(n1)NCCCCC1(C)CCN(CC1)c1cc(NS(=O)(=O)CCO)ccc1C(=O)N2 [EX37]
pIC50 (Kif18A): > 8.00 | pIC50 (OVCAR-3): 7.00 to 8.00

Cc1cc2nc(n1)NCCC(C)OCC1(C)CCN(CC1)c1cc(NS(=O)(=O)CCO)ccc1C(=O)N2 (stereo not shown) [EX38]
pIC50 (Kif18A): 7.00 to 8.00 | pIC50 (OVCAR-3): 7.00 to 8.00
